How the values were obtained:
[1] = biological target: wild type PRC2 (wtPRC2) complex (Homo sapiens, UniProt Q15910); assay: EZH2 LC-MS Assay; format: biochemical; details: 40 nM wtPRC2 complex, 30 uM SAM, 1.5 uM H3K27me1 and 3 uM H3K27me3 peptides; SAH production
Experimental: Representative compounds of the invention were serially and separately diluted 3-fold in DMSO to obtain twelve concentrations. Then the test compounds at each concentration (120 nL of each) were transferred by Mosquito into a 384-well Perkin Elmer ProxiPlate 384 plus plates. Solutions (6 μL) of 80 nM wild type PRC2 (wtPRC2) complex and 60 µM SAM in reaction buffer (20 mM Tris, pH 8.0, 0.1% BSA, 0.01% Triton, 0.5 mM DTT) were added to the wells that were then incubated with the test compound for 20 min. A 6 μL solution of 3 µM of the substrate peptide H3K27me1 (histone H3 [21-44]-K27me1-biotin) and 6 μM regulatory peptide H3K27me3 (histone H3 [21-44]-K27me3) in reaction buffer was added to initiate each reaction. The final components in the reaction solution include 40 nM wtPRC2 complex, 30 µM SAM, 1.5 µM H3K27me1 and 3 µM H3K27me3 peptides with varying concentration of the compounds. A positive control consisted of the enzyme at 40 nM, 30 μM SAM, 1.5 µM H3K27me1 and 3 µM H3K27me3 in the absence of the test compound, and a negative control consisted of 30 µM SAM, 1.5 µM H3K27me1 and 3 μM H3K27me3 only. Each reaction was incubated at room temperature for 120 min, then stopped by addition of 3 μL per of quench solution (2.5% TFA with 320 nM d4-SAH). The reaction mixture was centrifuged (Eppendorf centrifuge 5810, Rotor A-4-62) for 2 min at 2000 rpm and read on an API 4000 triple quadrupole mass spec with Turbulon Spray (Applied Biosystem) coupled with Prominence UFLC (Shimadzu). The levels of SAH production were normalized based on the values coming from the positive and negative controls to give percent enzyme activities. The data were fit to a dose response equation using the program Helios to get the […] values of the test compound.

[2] = test system: H3K27 methylation in G401 cell; assay: ELISA (H3K27 methylation) assay; format: cell-based; details: cultured 48 h with compound, normalized using H3 signal
Experimental: ELISA (H3K27 methylation) assay
Representative compounds of the invention were serially and separately diluted 3-fold in DO to obtain a total of eight or twelve concentrations. Then the compounds were added to G401 cell cultured in 384-well plate at 1:500 dilution to obtain the highest concentration of 20 μM. The cells were further cultured for 48 h before ELISA procedure.
Histone extraction: Cells, in 384-well plate, were washed with PBS (10 x PBS buffer (80 g NaCl (Sigma, S3014), 2 g KCl (Sigma, 60128), 14.4 g Na2HPO4 (Sigma, S5136), 2.4 g KH2PO4 (Sigma, P9791) to 1 L water, pH to 7.4) and lysed with the addition of lysis buffer (0.4N HCl; 45 μl per well). The plate was gently agitated at 4° C. for 30 min. The cell lysate was neutralized with neutralization buffer (0.5 M sodium phosphate dibasic, pH 12.5. 1 mM DTT; 36 µL per well). The plate was agitated to ensure the lysates were well mixed prior to the ELISA protocol.
ELISA protocol: Cell lysates were transferred to the wells of a 384-well plate and the final volume was adjusted to 50 μL per well with PBS. The plate was sealed, centrifuged at 2,000 rpm for 2 min and incubated at 4° C. for about 16 h. The plate was washed with TBST buffer (1 x TBS (10x TBS: 24.2 g Tris (Sigma, T6066), 80 g NaCl (Sigma, S3014) to 1 L of water and adjust pH to 7.6 with HCl) with 0.1% Tween-20). Blocking buffer (TBST, 5% BSA; 50 µL per well) was added and the plate was incubated for 1 h at rt. The blocking buffer was removed and primary antibody was added (30 μL per well). The following dilutions were performed with blocking buffer: for anti-H3K27me3 antibody (Cell Signaling Technology, #9733), dilution was 1:1000; for anti-H3K27me2 antibody (Cell Signaling Technology, #9288), dilution was 1:100; for anti-H3 antibody (Abcam, Cat #24834), dilution was 1:1000. The primary antibody was incubated in the plate at rt for 1 h. The wells were washed with TBST and incubated with secondary antibody for 1 h at rt. For secondary antibodies, the following dilutions were carried out with blocking buffer: anti-rabbit antibody (Jackson ImmunoResearch, #111-035-003), dilution was 1:2000; and anti-mouse antibody (Cell signaling technology, #7076), dilution was 1:1000.
After 1 h of incubation at rt, the wells were washed with TBST. ECL substrate (Pierce, #34080) was added at 30 μL per well and the plates were centrifuged at 2,000 rpm for 2 min. The signal was read using a PerkinElmer Envision Reader. The H3K27 methylation readouts were normalized using H3 signal and then percentage inhibition was calculated against the samples treated with DO. The data were fit to a dose response curve using the program Helios to get the IC50 values of the test compound.

Chain of wild type PRC2 (wtPRC2) complex (Q15910 whole entry): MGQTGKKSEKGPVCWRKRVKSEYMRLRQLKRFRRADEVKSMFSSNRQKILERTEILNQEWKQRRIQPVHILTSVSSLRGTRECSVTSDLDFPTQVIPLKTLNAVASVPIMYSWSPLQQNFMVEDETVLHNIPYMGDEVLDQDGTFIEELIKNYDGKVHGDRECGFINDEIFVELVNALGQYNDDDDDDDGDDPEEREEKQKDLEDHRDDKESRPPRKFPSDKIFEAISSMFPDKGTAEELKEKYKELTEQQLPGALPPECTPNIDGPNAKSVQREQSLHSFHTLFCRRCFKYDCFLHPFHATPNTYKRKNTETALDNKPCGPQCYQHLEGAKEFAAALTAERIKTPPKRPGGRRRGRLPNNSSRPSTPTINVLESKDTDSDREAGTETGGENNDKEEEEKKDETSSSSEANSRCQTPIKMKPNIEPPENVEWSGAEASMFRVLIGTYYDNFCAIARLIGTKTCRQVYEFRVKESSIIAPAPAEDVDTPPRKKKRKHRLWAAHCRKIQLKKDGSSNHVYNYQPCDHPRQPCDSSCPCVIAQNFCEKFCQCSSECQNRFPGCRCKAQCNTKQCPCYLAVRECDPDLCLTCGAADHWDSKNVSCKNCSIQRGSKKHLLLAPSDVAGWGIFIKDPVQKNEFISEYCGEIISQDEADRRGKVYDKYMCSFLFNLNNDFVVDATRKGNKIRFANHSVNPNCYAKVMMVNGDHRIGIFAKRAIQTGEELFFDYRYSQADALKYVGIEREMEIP
Chain of wild type PRC2 (wtPRC2) complex (O75530 whole entry partner): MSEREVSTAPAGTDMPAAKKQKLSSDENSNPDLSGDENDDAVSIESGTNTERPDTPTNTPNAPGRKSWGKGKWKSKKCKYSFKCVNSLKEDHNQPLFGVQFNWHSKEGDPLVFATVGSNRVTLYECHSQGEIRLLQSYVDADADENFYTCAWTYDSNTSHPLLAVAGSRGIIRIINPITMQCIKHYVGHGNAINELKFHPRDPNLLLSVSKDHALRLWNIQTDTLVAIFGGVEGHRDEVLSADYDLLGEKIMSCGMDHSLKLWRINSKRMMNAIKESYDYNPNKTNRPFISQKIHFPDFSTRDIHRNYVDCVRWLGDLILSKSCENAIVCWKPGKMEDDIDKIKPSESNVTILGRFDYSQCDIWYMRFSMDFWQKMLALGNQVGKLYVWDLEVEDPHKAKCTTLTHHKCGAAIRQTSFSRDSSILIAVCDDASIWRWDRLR
Chain of wild type PRC2 (wtPRC2) complex (Q15022 whole entry partner): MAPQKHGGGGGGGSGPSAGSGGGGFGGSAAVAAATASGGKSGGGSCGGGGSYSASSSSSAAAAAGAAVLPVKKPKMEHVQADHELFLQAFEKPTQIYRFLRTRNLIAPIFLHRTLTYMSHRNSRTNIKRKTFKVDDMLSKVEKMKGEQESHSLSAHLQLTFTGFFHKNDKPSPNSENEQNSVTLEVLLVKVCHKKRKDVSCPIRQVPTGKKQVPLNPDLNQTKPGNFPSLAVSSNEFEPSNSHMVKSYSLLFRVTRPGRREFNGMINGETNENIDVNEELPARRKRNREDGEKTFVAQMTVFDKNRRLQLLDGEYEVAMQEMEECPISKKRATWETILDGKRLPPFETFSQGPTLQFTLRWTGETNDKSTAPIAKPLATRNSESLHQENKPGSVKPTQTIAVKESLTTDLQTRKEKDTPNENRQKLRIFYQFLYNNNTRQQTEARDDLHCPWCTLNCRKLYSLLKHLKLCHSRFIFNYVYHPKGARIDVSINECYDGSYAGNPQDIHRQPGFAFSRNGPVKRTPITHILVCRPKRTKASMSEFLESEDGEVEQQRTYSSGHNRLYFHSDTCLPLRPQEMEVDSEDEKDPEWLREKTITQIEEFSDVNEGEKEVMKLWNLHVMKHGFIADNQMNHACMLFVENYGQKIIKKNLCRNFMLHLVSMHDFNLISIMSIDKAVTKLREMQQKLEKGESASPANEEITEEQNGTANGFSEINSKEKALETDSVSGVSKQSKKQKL

SMILES | IC50 [1] [nM] | IC50 ([2]; Homo sapiens, G-401, 48 h) [nM] | IC50 [2] [nM]
Cc1ccc2ccc(N[C@H]3CC[C@H](CNc4ncc([C@@H](CO)C(=O)NC5COC5)cn4)CC3)nc2c1Cl (single isomer, unassigned) [Example 7, (S)-2-(2-((((1r,4S)-4-((8-chloro-7-methylquinolin-2-yl)amino)cyclohexyl)methyl)amino)pyrimidin-5-yl)-3-hydroxy-N-(oxetan-3-yl)propanamide; or (R)-2-(2-((((1r,4R)-4-((8-chloro-7-methylquinolin-2-yl)amino)cyclohexyl)methyl)amino)pyrimidin-5-yl)-3-hydroxy-N-(oxetan-3-yl)propanamide] | 50 to 100 | 10 to 100 | –
Cc1ccc2ccc(N[C@H]3CC[C@H](CNc4ncc([C@@H](CO)C(=O)NC5COC5)cn4)CC3)nc2c1Cl (single isomer, unassigned) [Example 8, (S)-2-(2-((((1r,4S)-4-((8-chloro-7-methylquinolin-2-yl)amino)cyclohexyl)methyl)amino)pyrimidin-5-yl)-3-hydroxy-N-(oxetan-3-yl)propanamide; or (R)-2-(2-((((1r,4R)-4-((8-chloro-7-methylquinolin-2-yl)amino)cyclohexyl)methyl)amino)pyrimidin-5-yl)-3-hydroxy-N-(oxetan-3-yl)propanamide] | < 50 | – | < 10
Cc1ccc2ccc(N[C@H]3CC[C@H](CNc4ncc([C@H](O)C(=O)NC5COC5)cn4)CC3)nc2c1Cl (single isomer, unassigned) [Example 10, (S)-2-(2-((((1r,4S)-4-((8-chloro-7-methylquinolin-2-yl)amino)cyclohexyl)methyl)amino)pyrimidin-5-yl)-2-hydroxy-N-(oxetan-3-yl)acetamide; or (R)-2-(2-((((1r,4R)-4-((8-chloro-7-methylquinolin-2-yl)amino)cyclohexyl)methyl)amino)pyrimidin-5-yl)-2-hydroxy-N-(oxetan-3-yl)acetamide] | 50 to 100 | 10 to 100 | –
Cc1ccc2ccc(N[C@H]3CC[C@H](CNc4ncc([C@H](O)C(=O)NC5COC5)cn4)CC3)nc2c1Cl (single isomer, unassigned) [Example 11, (S)-2-(2-((((1r,4S)-4-((8-chloro-7-methylquinolin-2-yl)amino)cyclohexyl)methyl)amino)pyrimidin-5-yl)-2-hydroxy-N-(oxetan-3-yl)acetamide; or (R)-2-(2-((((1r,4R)-4-((8-chloro-7-methylquinolin-2-yl)amino)cyclohexyl)methyl)amino)pyrimidin-5-yl)-2-hydroxy-N-(oxetan-3-yl)acetamide] | < 50 | – | < 10
Cc1ccc2ccc(N[C@H]3CC[C@H](CNc4ncc([C@H](C)C(=O)NC5COC5)cn4)CC3)nc2c1Cl (single isomer, unassigned) [Example 13, (S)-2-(2-((((1r,4S)-4-((8-chloro-7-methylquinolin-2-yl)amino)cyclohexyl)methyl)amino)pyrimidin-5-yl)-N-(oxetan-3-yl)propanamide; or (R)-2-(2-((((1r,4R)-4-((8-chloro-7-methylquinolin-2-yl)amino)cyclohexyl)methyl)amino)pyrimidin-5-yl)-N-(oxetan-3-yl)propanamide] | < 50 | – | –
Cc1ccc2ccc(N[C@H]3CC[C@H](CNc4ncc([C@H](C)C(=O)NC5COC5)cn4)CC3)nc2c1Cl (single isomer, unassigned) [Example 14, (S)-2-(2-((((1r,4S)-4-((8-chloro-7-methylquinolin-2-yl)amino)cyclohexyl)methyl)amino)pyrimidin-5-yl)-N-(oxetan-3-yl)propanamide; or (R)-2-(2-((((1r,4R)-4-((8-chloro-7-methylquinolin-2-yl)amino)cyclohexyl)methyl)amino)pyrimidin-5-yl)-N-(oxetan-3-yl)propanamide] | < 50 | – | –
Cc1ccc2ccc(N[C@H]3CC[C@H](CNc4ncc(CC(=O)NC5COC5)cn4)CC3)nc2c1Cl [Example 1, 2-(2-((((1R,4R)-4-((8-chloro-7-methylquinolin-2-yl)amino)cyclohexyl)methyl)amino)pyrimidin-5-yl)-N-(oxetan-3-yl)acetamide] | < 50 | < 10 | –
Cc1ccc2ccc(N[C@H]3CC[C@H](CNc4ncc(CC(=O)N(C)C5COC5)cn4)CC3)nc2c1Cl [Example 2, 2-(2-((((1r,4r)-4-((8-chloro-7-methylquinolin-2-yl)amino)cyclohexyl)methyl)amino)pyrimidin-5-yl)-N-methyl-N-(oxetan-3-yl)acetamide] | < 50 | < 10 | –
Cc1ccc2ccc(N[C@H]3CC[C@H](CNc4ncc(C(F)(F)C(=O)NC5COC5)cn4)CC3)nc2c1Cl [Example 3, 2-(2-((((1r,4r)-4-((8-chloro-7-methylquinolin-2-yl)amino)cyclohexyl)methyl)amino)pyrimidin-5-yl)-2,2-difluoro-N-(oxetan-3-yl)acetamide] | < 50 | < 10 | –
Cc1ccc2ccc(N[C@H]3CC[C@H](CNc4ncc(C(C)(O)C(=O)NC5COC5)cn4)CC3)nc2c1Cl (some centres unmarked) [Example 4, 2-(2-((((1r,4r)-4-((8-chloro-7-methylquinolin-2-yl)amino)cyclohexyl)methyl)amino)pyrimidin-5-yl)-2-hydroxy-N-(oxetan-3-yl)propanamide] | < 50 | > 100 | –
Cc1ccc2ccc(N[C@H]3CC[C@H](CNc4ncc(C(C#N)C(=O)NC5COC5)cn4)CC3)nc2c1Cl (some centres unmarked) [Example 5, 2-(2-((((1r,4r)-4-((8-chloro-7-methylquinolin-2-yl)amino)cyclohexyl)methyl)amino)pyrimidin-5-yl)-2-cyano-N-(oxetan-3-yl)acetamide] | < 50 | < 10 | –
Cc1ccc2ccc(N[C@H]3CC[C@H](CNc4ncc(C(CO)C(=O)NC5COC5)cn4)CC3)nc2c1Cl (some centres unmarked) [Example 6, 2-(2-((((1r,4r)-4-((8-chloro-7-methylquinolin-2-yl)amino)cyclohexyl)methyl)amino)pyrimidin-5-yl)-3-hydroxy-N-(oxetan-3-yl)propanamide] | < 50 | < 10 | –
Cc1ccc2ccc(N[C@H]3CC[C@H](CNc4ncc(C(O)C(=O)NC5COC5)cn4)CC3)nc2c1Cl (some centres unmarked) [Example 9, 2-(2-((((1r,4r)-4-((8-chloro-7-methylquinolin-2-yl)amino)cyclohexyl)methyl)amino)pyrimidin-5-yl)-2-hydroxy-N-(oxetan-3-yl)acetamide] | < 50 | < 10 | –
Cc1ccc2ccc(N[C@H]3CC[C@H](CNc4ncc(C(C)C(=O)NC5COC5)cn4)CC3)nc2c1Cl (some centres unmarked) [Example 12, 2-(2-((((1r,4r)-4-((8-chloro-7-methylquinolin-2-yl)amino)cyclohexyl)methyl)amino)pyrimidin-5-yl)-N-(oxetan-3-yl)propanamide] | < 50 | < 10 | –

From patent US12473273B2, “Quinoline compounds and compositions for inhibiting EZH2” (Novartis AG, priority 2020, dated 2025)
